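Values below derive from 48-hour exposures of cells grown in 96-well plates, with endpoints linearly interpolated between the two concentrations bracketing the appropriate inhibition level. GI50 marks 50% less growth. Definition used: TGI = concentration required for complete inhibition of growth.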
Legend:
Experiment in all cases: inhibition of tumour cell growth, NCI panel, 48 h
[1] = system: NCI-H226 lung
[2] = system: COLO 205 colon
[3] = system: BT-549 breast
[4] = system: OVCAR-3 ovarian
[5] = system: OVCAR-8 ovarian
[6] = system: UO-31 renal
[7] = system: DU-145 prostate
[8] = system: NCI-H23 lung
[9] = system: KM12 colon
[10] = system: IGROV1 ovarian
[11] = system: UACC-257 melanoma
[12] = system: MCF7 breast
[13] = system: MDA-MB-435
[14] = system: HS 578T breast
[15] = system: TK-10 renal
[16] = system: M14 melanoma
[17] = system: SNB-75 CNS
[18] = system: SW-620 colon
[19] = system: PC-3 prostate
[20] = system: CAKI-1 renal
[21] = system: UACC-62 melanoma
[22] = system: A498 renal
[23] = system: K-562 leukemia
[24] = system: NCI-H460 lung
[25] = system: HL-60(TB) leukemia
[26] = system: SF-539 CNS
[27] = system: MDA-MB-231 breast
[28] = system: U251 CNS
[29] = system: SNB-19 CNS
[30] = system: T-47D breast
[31] = system: RPMI-8226 leukemia
[32] = system: MOLT-4 leukemia
[33] = system: HCC-2998 colon
[34] = system: SR leukemia
[35] = system: SK-MEL-5 melanoma
[36] = system: SK-MEL-28 melanoma
[37] = system: HOP-62 NSCLC
[38] = system: SF-268 CNS
[39] = system: SK-MEL-2 melanoma
[40] = system: OVCAR-5 ovarian
[41] = system: HOP-92 NSCLC
[42] = system: OVCAR-4 ovarian
[43] = system: NCI-H522 lung
[44] = system: SF-295 CNS
[45] = system: NCI/ADR-RES ovarian
[46] = system: HCT-116 colon
[47] = system: MALME-3M melanoma
[48] = system: 786-0 renal
[49] = system: SN12C renal
[50] = system: EKVX NSCLC
[51] = system: RXF 393 renal
[52] = system: A549 NSCLC
[53] = system: CCRF-CEM leukemia
[54] = system: ACHN renal
[55] = system: HT29 colon
[56] = system: SK-OV-3 ovarian
[57] = system: LOX IMVI melanoma
[58] = system: HCT-15 colon

O=CC1C(Cl)=Nc2nc3ccccc3n2C1c1ccc([N+](=O)[O-])cc1 (configuration not stated)
TGI [1]: 9.27 µM | TGI [2]: > 100 µM | TGI [3]: 2.58 µM | TGI [4]: > 100 µM | TGI [5]: 27.7 µM | TGI [6]: 14.8 µM | TGI [7]: 32.4 µM | TGI [8]: 57.1 µM | TGI [9]: 82.9 µM | TGI [10]: 26 µM | TGI [11]: 31.5 µM | TGI [12]: 67.9 µM | TGI [13]: 27.8 µM | TGI [14]: > 100 µM | TGI [15]: 16.1 µM | TGI [16]: > 100 µM | TGI [17]: 5.28 µM | TGI [18]: > 100 µM | TGI [19]: > 100 µM | TGI [20]: 7.65 µM | TGI [21]: 35.6 µM | TGI [22]: 47.4 µM | TGI [23]: 78.5 µM | TGI [24]: 94 µM | TGI [25]: 20.2 µM | TGI [26]: > 100 µM | TGI [27]: 45.4 µM | TGI [28]: 44.5 µM | TGI [29]: 36.3 µM | TGI [30]: 4.19 µM | TGI [31]: > 100 µM | TGI [32]: 6.29 µM | TGI [33]: 49.4 µM | TGI [34]: 5.97 µM | TGI [35]: 37.9 µM | TGI [36]: 5.09 µM | TGI [37]: > 100 µM | TGI [38]: 62.2 µM | TGI [39]: 21.4 µM | TGI [40]: > 100 µM | TGI [41]: 20.7 µM | TGI [42]: 30.9 µM | TGI [43]: 12.8 µM | TGI [44]: 50.7 µM | TGI [45]: > 100 µM | TGI [46]: > 100 µM | TGI [47]: 31.6 µM | TGI [48]: > 100 µM | TGI [49]: 51.4 µM | TGI [50]: 53.5 µM | TGI [51]: 7.15 µM | TGI [52]: > 100 µM | TGI [53]: > 100 µM

CCN(CC)CCOc1nc2c3ccc(Cl)cc3nn2c2ccccc12
GI50 [1]: 2.06 µM | TGI [1]: 10.2 µM | GI50 [2]: 1.55 µM | TGI [2]: 4.55 µM | GI50 [3]: 3.54 µM | TGI [3]: 17.5 µM | GI50 [4]: 2.86 µM | TGI [4]: 9.42 µM | GI50 [5]: 2.64 µM | TGI [5]: 55.9 µM | GI50 [6]: 1.07 µM | TGI [6]: 2.66 µM | GI50 [7]: 2.4 µM | TGI [7]: 6.07 µM | GI50 [8]: 1.81 µM | TGI [8]: 4.9 µM | GI50 [9]: 1.96 µM | TGI [9]: 4.69 µM | GI50 [10]: 1.54 µM | TGI [10]: 4.62 µM | GI50 [11]: 1.89 µM | TGI [11]: 4.02 µM | GI50 [12]: 1.96 µM | TGI [12]: 6.08 µM | GI50 [13]: 1.15 µM | TGI [13]: 2.79 µM | GI50 [14]: 2.59 µM | TGI [14]: 11.3 µM | GI50 [15]: 3.88 µM | TGI [15]: 16.1 µM | GI50 [16]: 1.76 µM | TGI [16]: 3.95 µM | GI50 [17]: 1.58 µM | TGI [17]: 8.35 µM | GI50 [18]: 1.42 µM | TGI [18]: 4.13 µM | GI50 [19]: 2.29 µM | TGI [19]: 9.94 µM | GI50 [20]: 1.45 µM | TGI [20]: 2.97 µM | GI50 [21]: 1.79 µM | TGI [21]: 3.7 µM | GI50 [22]: 1.62 µM | TGI [22]: 3.05 µM | GI50 [23]: 2.73 µM | TGI [23]: > 100 µM | GI50 [24]: 2.61 µM | TGI [24]: 7.5 µM | GI50 [25]: 2.06 µM | TGI [25]: 5.64 µM | GI50 [26]: 1.71 µM | TGI [26]: 3.84 µM | GI50 [27]: 2.02 µM | TGI [27]: 7.03 µM | GI50 [28]: 2.11 µM | TGI [28]: 5.4 µM | GI50 [29]: 3.28 µM | TGI [29]: 36.1 µM | GI50 [30]: 3.51 µM | TGI [30]: 18.8 µM | GI50 [32]: 2.77 µM | TGI [32]: > 100 µM | GI50 [33]: 1.62 µM | TGI [33]: 3.43 µM | GI50 [34]: 2.12 µM | TGI [34]: 15.8 µM | GI50 [35]: 1.73 µM | TGI [35]: 3.12 µM | GI50 [54]: 1.32 µM | TGI [54]: 3.36 µM | GI50 [36]: 1.89 µM | TGI [36]: 3.57 µM | GI50 [37]: 2.38 µM | TGI [37]: 12.5 µM | GI50 [38]: 2.89 µM | TGI [38]: 11 µM | GI50 [39]: 2.16 µM | TGI [39]: 4.94 µM | GI50 [40]: 2.67 µM | TGI [40]: 10.3 µM | GI50 [55]: 2.04 µM | TGI [55]: 9.9 µM | GI50 [41]: 1.4 µM | TGI [41]: 6.41 µM | GI50 [42]: 2.78 µM | TGI [42]: 9.06 µM | GI50 [43]: 2.37 µM | TGI [43]: 6.43 µM | GI50 [44]: 1.79 µM | TGI [44]: 4.18 µM | GI50 [45]: 1.89 µM | TGI [45]: 8.24 µM | GI50 [46]: 1.4 µM | TGI [46]: 3.53 µM | GI50 [47]: 1.6 µM | TGI [47]: 3.22 µM | GI50 [48]: 1.69 µM | TGI [48]: 3.67 µM | GI50 [49]: 2.21 µM | TGI [49]: 10.1 µM | GI50 [56]: 2.49 µM | TGI [56]: 21.4 µM | GI50 [50]: 2.62 µM | TGI [50]: 9.71 µM | GI50 [51]: 1.75 µM | TGI [51]: 3.94 µM | GI50 [52]: 1.87 µM | TGI [52]: 4.63 µM | GI50 [53]: 2.25 µM | TGI [53]: 12.8 µM | GI50 [57]: 1.44 µM | TGI [57]: 3.05 µM

COc1ccc(N2C(=O)C3c4[nH]c5ccc(C)cc5c4C4CCC(c5ccccc5)CC4C3C2=O)cc1 (configuration not stated)
TGI [1]: > 100 µM | TGI [2]: > 100 µM | TGI [3]: > 100 µM | TGI [4]: > 100 µM | TGI [5]: > 83.9 µM | TGI [6]: > 100 µM | TGI [7]: > 100 µM | TGI [8]: > 100 µM | TGI [9]: > 100 µM | TGI [10]: > 100 µM | TGI [11]: > 100 µM | TGI [12]: > 100 µM | TGI [13]: > 100 µM | TGI [14]: > 73.4 µM | TGI [15]: > 75.3 µM | TGI [16]: > 100 µM | TGI [17]: 12 µM | TGI [58]: > 100 µM | TGI [18]: > 100 µM | TGI [19]: > 100 µM | TGI [20]: > 72.5 µM | TGI [21]: > 79.5 µM | TGI [22]: > 68.8 µM | TGI [23]: 98.9 µM | TGI [24]: > 100 µM | TGI [25]: > 100 µM | TGI [27]: > 49.5 µM | TGI [28]: 98.6 µM | TGI [29]: > 66.5 µM | TGI [30]: > 100 µM | TGI [31]: > 100 µM | TGI [32]: > 100 µM | TGI [33]: > 100 µM | TGI [34]: 23.6 µM | TGI [35]: > 100 µM | TGI [54]: > 100 µM | TGI [36]: > 100 µM | TGI [37]: 26.8 µM | TGI [38]: > 100 µM | TGI [39]: > 69.4 µM | TGI [40]: > 100 µM | TGI [55]: > 100 µM | TGI [41]: > 90.2 µM | TGI [42]: > 82.3 µM | TGI [43]: > 100 µM | TGI [44]: > 100 µM | TGI [45]: > 100 µM | TGI [46]: > 100 µM | TGI [47]: > 100 µM | TGI [48]: > 62.2 µM | TGI [49]: > 100 µM | TGI [56]: > 100 µM | TGI [50]: > 100 µM | TGI [51]: 41 µM | TGI [52]: > 100 µM | TGI [53]: > 55.5 µM | TGI [57]: > 100 µM
